Reference: publication PMC4513639 (Molecular pharmacology, 2014)
Residue numbers refer to the chain shown, from its start. Like-named read-outs stand apart in the source and are kept apart here.

Tests used:
[1] = molecular target: T1, A1 receptor (Homo sapiens, UniProt P30542); test: Binding of the inhibitors to the A1 receptor; details: nanomolar to micromolar range
T1 sequence (P30542 1-326): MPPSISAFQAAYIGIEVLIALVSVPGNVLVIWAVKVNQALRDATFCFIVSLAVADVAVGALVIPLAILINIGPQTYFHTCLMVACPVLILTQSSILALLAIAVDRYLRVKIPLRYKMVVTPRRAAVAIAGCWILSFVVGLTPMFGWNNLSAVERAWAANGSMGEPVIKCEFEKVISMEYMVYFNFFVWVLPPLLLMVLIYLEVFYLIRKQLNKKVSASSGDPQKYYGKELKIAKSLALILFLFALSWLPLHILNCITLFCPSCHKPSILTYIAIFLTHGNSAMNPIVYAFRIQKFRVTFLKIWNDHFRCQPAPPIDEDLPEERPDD

[2] = system: A1-receptor-Y^288A; assay type: cell-based, human; details: for receptor upregulation with only one of the inhibitors (immunoblot): sole inhibitor, 2 μM EHNA or 10 μM dipyridamole; for role of blockage of adenosine efflux in receptor upregulation: added to EHNA and 5-iodotubercidin
[3] = system: A1-receptor-Y^288A; test: Confocal microscopy of YFP-tagged A1-receptor-Y288A distribution; assay type: cell-based, human; details: 1 μM DPCPX or combination of inhibitors
[4] = molecular target: T2, A1-receptor-Y^288A (Homo sapiens, UniProt P30542, Y288A); assay type: binding; details: membranes of untreated cells
T2 sequence (P30542 1-326 Y288A): T1 sequence (P30542 1-326) with Y288A

[5] = molecular target: T3, wild-type A1 receptor (Homo sapiens, UniProt P30542); assay type: binding; details: SF-TAP-tagged receptor
T3 sequence (P30542 1-326): T1 sequence (P30542 1-326)

[6] = system: A1-receptor-Y^288A; assay type: cell-based, human; details: SF-TAP-tagged receptor, 24 hours treatment, 15 nM [3H]DPCPX
[7] = system: A1-receptor-Y^288A; assay type: cell-based, human; details: 24 hours; 1 μM DPCPX or inhibitor combination
[8] = molecular target: human ENT2; details: read-out: affinity; ref Ward et al., 2000; cited from earlier work
[9] = molecular target: human ENT1; details: read-out: affinity; ref Ward et al., 2000; cited from earlier work
[10] = molecular target: adenosine deaminase; details: ref Ingolia et al., 1985; cited from earlier work
[11] = 24 hours, 0.5 μM iodotubercidin

Nc1ncnc2c1c(I)cn2[C@@H]1O[C@H](CO)[C@@H](O)[C@H]1O [5-iodotubercidin]
binding to the A1 receptor [1]: neither EHNA nor 5-iodotubercidin nor dipyridamole per se, nor their combination, used in the experiments bound to the A1 receptor | receptor upregulation with only one of the inhibitors (immunoblot) [2, 11]: not present

O=[N+]([O-])c1ccc(CSc2ncnc3c2ncn3[C@@H]2O[C@H](CO)[C@@H](O)[C@H]2O)cc1 [NBMPR, S-(4-nitrobenzyl)-6-thioinosine]
role of blockage of adenosine efflux in receptor upregulation ([2]; 24 hours): indispensable for receptor upregulation

CCCn1c(=O)c2[nH]c(C3CCCC3)nc2n(CCC)c1=O [DPCPX, 8-cyclopentyl-1,3-dipropylxanthine]
distribution of receptor fluorescence (confocal) [3]: the fluorescence was visualized on the cell surface | Bmax [4]: 486.3 ± 80.0 fmol/mg | Bmax ([5]; hypoxic cells (5% O2, 24 hours)): 15.0 ± 0.8 pmol/mg | Bmax ([5]; normoxic cells): 12.2 ± 0.3 pmol/mg | binding of [3H]DPCPX by the receptors accumulated after treatment [6]: did bind the radioligand | YFP fluorescence (flow cytometry) [7]: substantial accumulation of YFP fluorescence | fate of receptor after cycloheximide block (mature glycosylated forms) ([2]; 4 hours preincubation, then cycloheximide 50 μg/ml for 2 or 4 hours): concomitant increase in the mature glycosylated forms of the receptor | level of receptor protein (immunoblot) ([2]; HEK293 stably expressing A1-receptor-Y288A-YFP, 24 hours, 1 μM DPCPX, 2 μM EHNA, 0.5 μM iodotubercidin, 10 μM dipyridamole): elevated levels of the receptor protein | time of maximum chaperoning effect ([2]; incubation 1, 2, 4, 8 or 24 hours): 24 h

O=C1N[C@@H]2[C@@H](O)[C@@H](O)[C@H](O)[C@@H](CO)N2C1=O [kifunensine]
binding of [3H]DPCPX by the receptors accumulated after treatment [6]: failed to bind the antagonist radioligand [^3H]DPCPX

OCCN(CCO)c1nc(N2CCCCC2)c2nc(N(CCO)CCO)nc(N3CCCCC3)c2n1 [dipyridamole]
Ki [8]: ~350 nM | Ki [9]: ~5 nM | binding to the A1 receptor [1]: neither EHNA nor 5-iodotubercidin nor dipyridamole per se, nor their combination, used in the experiments bound to the A1 receptor | role of blockage of adenosine efflux in receptor upregulation ([2]; 24 hours): indispensable for receptor upregulation | receptor upregulation with only one of the inhibitors (immunoblot) [2, 11]: not present

CCCCCC[C@@H]([C@@H](C)O)n1cnc2c(N)ncnc21 (racemic) [EHNA, Erythro-9-(2-hydroxy-3-nonyl)adenine]
Ki [10]: 33 nM | binding to the A1 receptor [1]: neither EHNA nor 5-iodotubercidin nor dipyridamole per se, nor their combination, used in the experiments bound to the A1 receptor | receptor upregulation with only one of the inhibitors (immunoblot) [2, 11]: not present
